Test system: mammary adenocarcinoma cells
Assay: Dark Agouti Mammary Adenocarcinoma (DAMA) tumour-bearing model: tumour growth and MTX efficacy
Format: in vivo, rat
Conditions: MTX treated rats
Method: Tumour-bearing studies were conducted in accordance with ethical guidelines approved by the University of Adelaide Animal Ethics committee in accordance with the National Health and Medical Research Committee's Code for the care and use of animals for scientific research. All experiments were performed with N=8 rats per group.
The rats were individually-housed in conventional, open top cages under 12 h light/dark cycles with ad libitum access to autoclaved food and sterile water. Sawdust bedding was provided in all cases with enrichment (crinkle paper for tumour-naïve model or toilet rolls for tumour-bearing model). All cages were randomly arranged across racks to prevent potential bias and dampen variation.
The Dark Agouti Mammary Adenocarcinoma (DAMA) model was used to assess the effect of a composition comprising hydrolysed whey proteins and MCTs on tumor growth. Following acclimatisation (1 week with AIN93G control diet), female DA rats weighing 150-170 g were given ad libitum access to the test or control diet (table 1) for two weeks prior to methotrexate (MTX) treatment (day-14). […] Tumours were measured daily using digital calipers to determine their volume (cm^3). Tumour burden was calculated as tumour length width*depth (volume) and expressed as relative to body weight (% BW, cm^3/g). […]

CN(Cc1cnc2nc(N)nc(N)c2n1)c1ccc(C(=O)N[C@@H](CCC(=O)O)C(=O)O)cc1 [MTX, methotrexate]
tumour burden at necropsy (FIG. 1B volume, FIG. 1C weight, relative to body weight): significantly decreased to (near) zero

From patent US20250017973A1, “Nutritional composition for cancer” (N.V. Nutricia, priority 2022, published 2025)
